Patent US10478406B2, “High-pH solid-state epinephrine formulation” (HARC Therapeutics AG, priority 2019, dated 2019)

Assay: Suspension assay testing: epinephrine dissolved in suspension
Format: physicochemical
Excerpt: Sample numbers /1 and /2 were not acidic. To confirm that these samples produced solid state epinephrine rather than dissolved epinephrine, I had these samples assayed to determine whether the epinephrine had in fact dissolved into solution and if so, by what amount.
Sample numbers /3 and /4 were basic pH. I thus had these samples assayed to determine whether the epinephrine dissolved into solution and if so, by what amount.

total epinephrine that dissolves in water (basic pH 8.5): about 0.1%
total epinephrine that dissolves in water (pH 7, without added acid): about 0.45%
SMILES: CNC[C@H](O)c1ccc(O)c(O)c1 [Epinephrine, 4-[(1 R)-1-Hydroxy-2-(methylamino)ethyl]-1,2-benzenediol]
